Laboratory results published in patent US20260108561A1, “COMPOSITION FOR CELL TRANSPLANTATION THERAPY AND THE USE THEREOF” (NATIONAL UNIVERSITY OF SINGAPORE, priority 2022, published 2026).

Assays:
[1] = test system: grafted NPCs in the ischemic core; assay: Survival and differentiation of NPCs transplanted into the ischemic core of photothrombotic stroke mice (immunohistochemistry, stereology); format: in vivo, SCID mice; settings: for Cleaved-caspase3 immunostaining in grafted cells / Grafted (GFP+) cells in the stroke cavity: 7 days post transplantation; for Grafted (GFP+) cells in the stroke cavity: NPCs injected into ischemic core 2 weeks after stroke; for Gross appearance of the cortex: 30 days post transplantation; for Survival of grafted NPCs (overall conclusion): NPCs transplanted into the ischemic core
Procedure: All animal studies were performed in accordance with the institutional animal care and use committee at Duke-NUS Medical School. Ischemic strokes in adult (10-12 weeks) male SCID mice were induced through photo-thrombosis. Briefly, Rose Bengal was administered intravenously at a dose of 0.1 mg/g per mouse. Mouse skull was exposed under 2% isoflurane anaesthesia. The right motor cortex (anterior-posterior [AP]=+2 mm, lateral [L]=+1 mm) received a 2.5-mm diameter illumination of cold light through the intact skull for 15 min. Animals were randomly grouped and transplanted with forebrain glutamatergic precursors.
Animals were sacrificed with a lethal dose of pentobarbital (250 mg/kg) and immediately perfused with PBS followed by 4% cold paraformaldehyde (PFA). The brain samples were fixed in cold PFA for 2 hours and immersed in 30% sucrose at 4° C. for around 4 days until sunk. Serial coronal (1.54 mm to-0.22 mm from Bregma) sections were collected on a freezing microtome at a 40-μm thickness and stored at −20° C. For immunostaining, sections were incubated with blocking solution containing 10% normal donkey serum and 0.2% Triton-100 for 1 h at room temperature. Then sections were incubated with primary antibodies overnight at 4° C.
To quantify the population of DCX, SOX2, Ki67, NF and NeuN positive cells to total grafted cells (eGFP and Hoechst co-labelled), one brain slice was selected from every 6 serial slices on for stereological counting on Zeiss M1 Microscope with Stereo Investigator software (MBF Bioscience). In brief, immunolabeled slices were scanned on Zeiss M1 Microscope, grafts area was contoured manually, and then corresponding fluorescence labelled cells were unbiasedly counted. Population of cleaved-caspase3 expressing cells to total grafted cells was counted with ImageJ software. Data were replicated 4 to 6 times per group. To quantify the population of Brn2, Ctip2 and Foxp2 expressing cells to total GFP^+ cells on coverslips, all coverslips were scanned and captured by 20× objective with a confocal microscope (Nikon), and then was counted with ImageJ software. Data were replicated three times. All data were expressed as means±SEM.

[2] = test system: CCR5, CCL3, CCL4, and CCL5 protein expression; assay: Western blotting of CCR5 and CCL3/4/5 in transplanted cortical tissue; format: in vivo, SCID mice; settings: day 44 after ischemic lesion / 30 days post-transplantation; normalized to GAPDH
Procedure: Animals were anaesthetized and perfused with cold PBS at 2, 14 and 44 days after stroke. The injured cortices or grafts (an area with a radius of 1 mm from the epicenter) were dissected manually under a stereomicroscope (Zeiss) and stored at −80° C.
NPCs and neurons were washed using PBS and resuspended in RIPA buffer with protease inhibitor and phosphatase inhibitor. Samples were collected to 1.5 mL tubes on ice for 15 mins. For tissue samples, extracts were sonicated in cold RIPA buffer with protease/phosphatase inhibitors. All samples were quantified using Quick Start™ Bradford Protein Assay (Bio-RAD), and then Laemmli buffer (Bio-RAD) was added to each tube. Samples were heated at 95° C. for 5 mins and stored at −80° C. Total 15 μg of extract was loaded to each well on a 10% Bis-Tris pre-casted gel for electrophoresis.
After running at 120 V for 40 mins, proteins were transferred to PVDF membranes at 400 mA for 30 mins. […] Then membranes were incubated with primary antibodies overnight at 4° C.: anti-CCR5 (1:1000, Abcam, ab110103), anti-CCL3 (1:1000, Abcam, ab259372), anti-CCL4 (1:1000, Abcam, EP521Y), anti-CCL5 (1:1000, Thermo Fisher Scientific, 701030), anti-GAPDH (1:5000, Thermo Fisher Scientific, MA5-15738). The membranes were washed three times by 0.1% TBST and incubated with corresponding secondary antibodies at room temperature for 1 hour. The protein bands were presented by Enhanced Chemiluminescence Substrate (Promega) and visualized in Bio-RAD Chemidoc system. All intensity of bands was analysed by ImageJ software and normalized to corresponding GAPDH bands.

[3] = test system: NPCs; assay: Apoptosis of cultured NPCs (cleaved-caspase3, TUNEL) under CCR5 ligands and CCR5 blockade; format: cell-based, Human; settings: for Proportion of cleaved-caspase3+ cells in NPCs: single ligand 300 ng/mL, compared with the control group
Procedure: Induction of forebrain glutamate NPCs was done using the following procedure. Briefly, H9 hESCs or eGFP H9 hESCs were cultured on 6-well plates with Matrigel/vitronectin coated for one week. ESC colonies were gently blown off by 1 mL pipettes to form cell aggregates at day 0. Cell aggregates were cultured in flasks for 7 days with the neural induction medium (NIM) consisting of DMEM/F12, 1×N2 supplement, 1×NEAA, 2-μM SB431542, and 2-μM DMH-1. Cell aggregates were adhered to 6-well plates in the presence of NIM with 5% FBS for 6 hours, and then fresh NIM was changed. The aggregates were fed with NIM till neural rosette formation at day 16. The rosettes were gently blown off using 1 mL pipettes and suspended in flasks with NIM for 7 days. Then, NIM was changed every four days from day 23. The neural precursor cells (NPCs) were maintained in NIM till transplantation or immunostaining. NPCs were digested into single cells using TrypLE for 3 min at day 49. After one additional day of culture in NIM supplemented with 1×B27 and 100 nM compound E, the NPCs were collected for transplantation in ischemic stroke models. B-27 supplement is a defined yet complex mixture of antioxidant enzymes, proteins, vitamins, and fatty acids that are combined in optimized ratios to support neuronal survival in culture. Compound E is a γ-secretase inhibitor. For immunostaining, NPCs were seeded on glass coverslips and staining was performed after one-week culture.
(§1) To test the effects of CCR5 activation on NPCs and neurons, cells were seeded on Matrigel coated coverslips or 6-well plates and treated with overdose (300 ng/mL) ligands of CCR5. CCL3, CCL4, CCL5 and their combination (CCL3/4/5) were respectively added into NIM every other day. After four-day treatment, NPCs or neurons were collected for staining or immunoblotting.
(§2) 1×10^^5 NPCs were seeded on coverslips in each well of 24-well plate for two days to 50% confluency upon transduction at 37° C. in a humidified 5% C02 incubator. The lentiviral shRNAs (MOIs of 20) were used to infect NPCs overnight at 37° C. The medium containing lentiviral particles was removed from wells and replaced with […] fresh pre-warmed NIM. The infected NPCs were collected for immunostaining or western blotting at 5 days after transduction.
Sections were subsequently washed and incubated with corresponding secondary antibodies for 1 h at room temperature. Immunolabeled sections were mounted by Fluoromount-G with Hoechst. For TUNEL staining, cells on coverslips were fixed in PBS with 4% PFA for 30 mins, and then incubated with Terminal Deoxynucleotidyl Transferase (TdT) Equilibration buffer (Elabscience) at 37° C. for 30 mins. NPCs were incubated in labeling solution (Elabscience) with TdT enzyme at 37° C. for 1 hour.

[4] = target: T1, CCR5 (Homo sapiens, UniProt P51681); assay: CCR5 expression on cultured NPCs (immunostaining, Western blotting); format: cell-based; settings: immunostaining and Western blotting
T1 construct: endogenous in cells; host or cells: NPCs, immature and mature neurons differentiated from human H9 / eGFP-H9 embryonic stem cells
T1 sequence (P51681 whole entry): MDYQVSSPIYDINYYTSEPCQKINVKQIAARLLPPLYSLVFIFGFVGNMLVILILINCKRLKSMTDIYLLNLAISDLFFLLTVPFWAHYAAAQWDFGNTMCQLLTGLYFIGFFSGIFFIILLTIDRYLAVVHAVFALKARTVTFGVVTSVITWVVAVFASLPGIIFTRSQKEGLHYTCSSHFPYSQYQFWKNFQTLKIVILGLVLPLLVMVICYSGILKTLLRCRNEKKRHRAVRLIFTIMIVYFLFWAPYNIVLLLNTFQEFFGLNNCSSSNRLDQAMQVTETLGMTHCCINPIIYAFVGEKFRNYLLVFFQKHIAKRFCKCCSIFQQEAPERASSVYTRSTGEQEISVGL
Procedure: as §1, §2
NPCs and neurons were washed using PBS and resuspended in RIPA buffer with protease inhibitor and phosphatase inhibitor. Samples were collected to 1.5 mL tubes on ice for 15 mins. […] All samples were quantified using Quick Start™ Bradford Protein Assay (Bio-RAD), and then Laemmli buffer (Bio-RAD) was added to each tube. […]
After running at 120 V for 40 mins, proteins were transferred to PVDF membranes at 400 mA for 30 mins. […] All intensity of bands was analysed by ImageJ software and normalized to corresponding GAPDH bands.

[5] = test system: neurons in the penumbra area; settings: 100 mg/kg, i.p. daily; cited from earlier work

## Maraviroc [reference compound]
[1]
  Cleaved-caspase3 immunostaining in grafted cells: strong fluorescence
  Grafted (GFP+) cells in the stroke cavity: few or no GFP^+ cells
  Gross appearance of the cortex: collapsed cortex
  Survival of grafted NPCs (overall conclusion): insufficient to improve the survival of grafted NPCs
[2]
  CCR5 level in transplanted cortical tissue: did not downregulate
  Level of CCL3, 4, 5 in transplanted cortical tissue: did not show obvious difference
[3]; apoptosis induced by CCLs
  TUNEL+ cell population in NPCs under CCR5 blockade: reduced the proportion of TUNEL^+ NPCs
[4]
  Expression of CCR5 in NPCs under CCR5 blockade: without reducing the expression of CCR5
[5]
  Survival of neurons in the penumbra after stroke: promoted the survival of those neurons and their synaptic connections

## fibrinogen
[1]
  Cleaved-caspase3 immunostaining in grafted cells: strong fluorescence
  Grafted (GFP+) cells in the stroke cavity: observed in the stroke cavity
  Gross appearance of the cortex: collapsed cortex
  Survival of grafted NPCs (overall conclusion): insufficient to improve the survival of grafted NPCs
[1]; one month post-transplantation
  Fate of grafted cells: some surviving cells, which did not proliferate and became GFAP positive astrocytes
[2]
  CCR5 level in transplanted cortical tissue: did not downregulate
  Level of CCL3, 4, 5 in transplanted cortical tissue: did not show obvious difference

B1: CCL4: chemokine ligand 4, ligand of CCR5 (protein, UniProt P13236 24-92, looked up)
C-C motif chemokine 4: APMGSDPPTACCFSYTARKLPRNFVVDYYETSSLCSQPAVVFQTKRSKQVCADPSESWVQEYVYDLELN
[3]
  Proportion of cleaved-caspase3+ cells in NPCs: increased

B2: CCL3: chemokine ligand 3, ligand of CCR5 (protein, UniProt P10147 24-92, looked up)
C-C motif chemokine 3: SLAADTPTACCFSYTSRQIPQNFIADYFETSSQCSKPGVIFLTKRSRQVCADPSEEWVQKYVSDLELSA
[3]
  Proportion of cleaved-caspase3+ cells in NPCs: increased

B3: CCL5: chemokine ligand 5, ligand of CCR5 (protein, UniProt P13501 24-91, looked up)
C-C motif chemokine 5: SPYSSDTTPCCFAYIARPLPRAHIKEYFYTSGKCSNPAVVFVTRKNRQVCANPEKKWVREYINSLEMS
[3]
  Proportion of cleaved-caspase3+ cells in NPCs: increased
